Calls of active or inactive are those of the source. No cut-off for these calls is given here.
How the values were obtained:
[1] = Dark toxicity in mouse Colon 26 cells expressing p-glycoprotein assessed as cell viability incubated for 1 hr followed by incubated for 48 hrs in fresh medium by sulforhodamine B assay; type: cell-based; conditions: read-out: LD50
Colon 26 [2] = experiment: Photo-toxicity in mouse Colon 26 cells assessed as cell viability at 0.5 Jcm'-2 of continuous illumination with 630 +/- 2 nm laser light incubated for 48 hrs by sulforhodamine B assay; type: functional, cell-based; conditions: for EC50: Colon 26, 48 h
Colon 26 [3] = experiment: Photo-toxicity in mouse Colon 26 cells assessed as cell viability at 1 Jcm'-2 of continuous illumination with 630 +/- 2 nm laser light incubated for 48 hrs by sulforhodamine B assay; type: functional, cell-based; conditions: for EC50: Colon 26, 48 h
[4] = n-Octanol-water partition coefficient, log P of the compound at pH 7.4 by shake flask method; type: physicochemical
[5] = Ratio of LD50 for dark toxicity in mouse Colon 26 cells to EC50 for photo-toxicity in mouse Colon 26 cells at 1 Jcm'-2 of continuous illumination with 630 +/- 2 nm laser light; type: cell-based; conditions: read-out: Ratio LD50/EC50
Colon 26 [6] = experiment: Photo-toxicity in mouse Colon 26 cells assessed as cell viability up to 5 Jcm'-2 of continuous illumination with 630 +/- 2 nm laser light incubated for 48 hrs by sulforhodamine B assay; type: functional, cell-based; conditions: Colon 26, 48 h
Colon 26 [7] = experiment: Drug uptake in mouse Colon 26 cells expressing p-glycoprotein at 2 x 10^-7 M after 15 mins by flow cytometry in presence of 1 x 10^-4 M of verapamil; type: ADME, cell-based; conditions: colon 26, 0.25 h, 0.2 µM
Colon 26 [8] = experiment: Drug uptake in mouse Colon 26 cells expressing p-glycoprotein at 2 x 10^-7 M after 15 mins by flow cytometry in absence of verapamil; type: ADME, cell-based; conditions: colon 26, 0.25 h, 0.2 µM
[9] = Cellular uptake in mitochondria of mouse Colon 26 cells expressing p-glycoprotein using MitoTracker Green after 15 mins by flow cytometry; type: ADME; conditions: colon 26, 0.25 h
[10] = Ratio of LD50 for dark toxicity in mouse Colon 26 cells to EC50 for photo-toxicity in mouse Colon 26 cells at 15 Jcm'-2 of continuous illumination with 630 +/- 2 nm laser light; type: cell-based; conditions: read-out: Ratio LD50/EC50

Row | SMILES | CC50 at 1 h [1] | Activity (Colon 26 [2]) | Activity (Colon 26 [3]) | logD [4] | EC50 (Colon 26 [2]) | EC50 (Colon 26 [3]) | selectivity ratio [5] | EC50 (Colon 26 [6]) | fold change (FC) (Colon 26 [7]) | Drug uptake (Colon 26 [8]) | Drug uptake [9] | selectivity ratio [10]
1 | CN(C)c1ccc(-c2cc(-c3ccccc3)[s+]c(-c3ccc(N)cc3)c2)cc1 | 70 nM | inactive | inactive | – | – | – | – | – | – | – | – | –
2 | O=C(c1ccc(C2=c3cc4c5c(c3[Se]c3c2cc2c6c3CCCN6CCC2)CCC[N+]=5CCC4)s1)N1CCCCC1.[Cl-] | 2240 nM | – | – | 3.71 | 79 nM | 38.8 nM | 58 | 50 nM | 7.6 | Active | Active | –
3 | CN(C)c1ccc(-c2cc(-c3ccccc3)[se+]c(-c3ccc(N)cc3)c2)cc1 | 2600 nM | – | – | – | – | – | – | – | – | – | – | 13
4 | S=C(c1ccc(C2=c3cc4c5c(c3[Se]c3c2cc2c6c3CCCN6CCC2)CCC[N+]=5CCC4)s1)N1CCCCC1.[Cl-] | 1530 nM | – | – | 4.1 | 56 nM | 29 nM | 53 | 50 nM | 2.9 | Active | Active | –
5 | CN(C)c1ccc(-c2cc(-c3ccc(N)cc3)[se+]c(-c3ccc(N)cc3)c2)cc1 | – | – | – | – | – | – | – | – | – | – | – | 3.8
